Counter-ions that a name gives are not always drawn.
Key:
Type in all cases: biochemical
LOXL2 [1] = target: T1, LOXL2 (Homo sapiens (Human), UniProt Q9Y4K0); test: LOXL2 inhibition, Amplex Red oxidation assay; details: 30 min preincubation at 37 °C, putrescine substrate
Summary of the method: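 LOXL2 in 1.2 M urea, 50 mM sodium borate pH 8.2 was preincubated with compound (11-point curve) for 30 min at 37 °C; mofegiline/pargyline were added only for non-purified enzyme. Reaction mix held 2× KM putrescine (10 mM), 120 μM Amplex Red and 1.5 U/mL HRP. H2O2 fluorescence (ex 565/em 590 nm) was read over 30 min, and IC50 came from slopes.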

Bovine LOX = Bovine LOX (Bos taurus (Bovine), UniProt P33072); test: LOX inhibition, Amplex Red oxidation assay; details: 30 min preincubation at 37 °C, putrescine substrate
Bovine LOX, sequence (P33072 170-418): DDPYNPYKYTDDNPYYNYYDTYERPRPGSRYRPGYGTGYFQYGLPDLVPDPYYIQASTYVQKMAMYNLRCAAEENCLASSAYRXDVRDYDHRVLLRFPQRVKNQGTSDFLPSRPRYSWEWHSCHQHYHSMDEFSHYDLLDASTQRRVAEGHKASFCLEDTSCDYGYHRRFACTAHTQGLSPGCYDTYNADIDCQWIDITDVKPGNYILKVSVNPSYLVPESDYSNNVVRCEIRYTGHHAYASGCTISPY
Summary of the method: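 Bovine LOX in 1.2 M urea, 50 mM sodium borate pH 8.2, with 1 μM mofegiline and 0.5 mM pargyline unless recombinant or purified. The added mix held putrescine at twice KM (20 mM for LOX), 120 μM Amplex Red and 1.5 U/mL HRP.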

LOXL2 [2] = target: T1, LOXL2; test: Jump dilution experiment, sustained inhibition of LOXL2; details: jump dilution after 40 min at 37 °C with 10× or 30× IC50; vs non-inhibited controls;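 note: 30× IC50 used only where needed so inhibitor exceeds enzyme concentration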
Procedure: Jump Dilution experiment: The assay was developed using a 96 well format and the starting enzyme concentration was set 100 times higher than for the inhibition studies. […] After the incubation, the mixture was diluted 50× in assay buffer, followed by a further 2× dilution in Amplex Red-horseradish peroxidase-putrescine reaction mix (same as per the inhibition studies) prior to the fluorescent measurement. Results were expressed in % recovery of the signal after a specified time by comparison with non-inhibited controls.

Recombinant human MAO-B = Recombinant human MAO-B (Homo sapiens (Human), UniProt P27338); test: Inhibition of human recombinant MAO-B; details: benzylamine 100 μM
Recombinant human MAO-B, sequence (P27338 whole entry): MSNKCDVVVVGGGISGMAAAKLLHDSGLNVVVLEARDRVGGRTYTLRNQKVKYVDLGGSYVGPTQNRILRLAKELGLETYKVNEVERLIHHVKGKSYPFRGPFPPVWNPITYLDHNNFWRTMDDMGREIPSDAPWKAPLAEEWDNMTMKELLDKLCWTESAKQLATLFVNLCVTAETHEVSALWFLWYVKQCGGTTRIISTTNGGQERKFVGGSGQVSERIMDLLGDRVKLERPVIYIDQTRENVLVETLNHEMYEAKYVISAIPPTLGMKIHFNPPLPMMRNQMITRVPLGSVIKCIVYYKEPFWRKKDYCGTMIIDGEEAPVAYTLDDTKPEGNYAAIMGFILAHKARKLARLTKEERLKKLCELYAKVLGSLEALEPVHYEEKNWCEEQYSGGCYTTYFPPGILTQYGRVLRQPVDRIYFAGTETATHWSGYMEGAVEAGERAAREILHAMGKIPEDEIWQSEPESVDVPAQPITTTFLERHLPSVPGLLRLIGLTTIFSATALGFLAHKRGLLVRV
Procedure: The specificity of the compounds of this invention was tested by determining their ability to inhibit MAO-B activities in vitro. Recombinant human MAO-B (0.06 mg/mL; Sigma Aldrich) was used as source of MAO-B enzyme activities. The assay was performed in a similar way as for human SSAO/VAP-1 (Example 28) except, the substrate benzylamine was used at 100 μM.

T1 sequence (Q9Y4K0 26-774): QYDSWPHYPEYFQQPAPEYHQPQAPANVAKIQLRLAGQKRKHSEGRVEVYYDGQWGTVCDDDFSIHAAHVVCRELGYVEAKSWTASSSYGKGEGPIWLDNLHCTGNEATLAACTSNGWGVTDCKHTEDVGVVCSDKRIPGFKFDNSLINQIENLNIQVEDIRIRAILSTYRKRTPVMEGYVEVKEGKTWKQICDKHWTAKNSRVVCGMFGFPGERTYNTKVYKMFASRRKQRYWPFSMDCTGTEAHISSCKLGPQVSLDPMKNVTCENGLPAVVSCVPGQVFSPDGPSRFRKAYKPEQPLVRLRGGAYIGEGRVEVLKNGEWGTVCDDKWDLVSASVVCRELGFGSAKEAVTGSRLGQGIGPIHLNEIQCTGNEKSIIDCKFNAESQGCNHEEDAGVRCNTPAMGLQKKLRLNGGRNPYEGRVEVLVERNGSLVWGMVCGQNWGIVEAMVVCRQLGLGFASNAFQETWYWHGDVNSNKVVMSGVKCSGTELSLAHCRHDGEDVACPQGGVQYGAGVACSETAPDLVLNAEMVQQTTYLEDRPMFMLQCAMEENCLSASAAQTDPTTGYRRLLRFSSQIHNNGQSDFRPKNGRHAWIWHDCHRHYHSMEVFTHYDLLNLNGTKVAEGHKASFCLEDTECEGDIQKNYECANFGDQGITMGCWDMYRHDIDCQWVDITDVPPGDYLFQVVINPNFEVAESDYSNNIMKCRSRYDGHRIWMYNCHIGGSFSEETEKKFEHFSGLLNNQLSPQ

SMILES	IC50 (LOXL2 [1]) [µM]	IC50 (Bovine LOX) [µM]	LOXL2 - Recovery of activity. (%) (LOXL2 [2])	IC50 (Recombinant human MAO-B) [µM]
NC/C=C(\F)CS(=O)(=O)c1ccccc1 [Compound 1, (Z)-3-fluoro-4-(phenylsulfonyl)but-2-en-1-amine hydrochloride]	< 10	< 10	9.5	> 30
NC/C=C(\F)CS(=O)(=O)c1cccc2cccnc12 [Compound 33, (Z)-3-fluoro-4-(quinolin-8-ylsulfonyl)but-2-en-1-amine dihydrochloride]	< 1	< 10	6.9	> 30
